Laboratory results as given in US5091305A, “Bile acid sulfate sulfatase, process for its preparation and method for assaying bile acid” (Marukin Shoyu Co., Ltd., priority 1988, dated 1992).
Where two headings read alike, the source gives them in different places.

Experiments:
[1] = system: bile acid sulfate sulfatase; experiment: Inhibition and activation of the present Enzyme by additives; format: biochemical, Pseudomonas testosteroni
Experimental: (§1) The physicochemical properties of the present Enzyme are further described below. The activity of the present Enzyme is measured as follows. That is, into a quartz cell are placed 0.1 ml of 2.5 mM aqueous solution of lithocholic acid 3α-sulfate (Sigma), 0.2 ml of 15 mM aqueous solution of β-NAD (Oriental Yeast), 1.0 ml of 0.1M tris-hydrochloric acid buffer solution (pH 8.0) and 1.55 ml of distilled water, and after equilibrating at 30° C., 0.05 ml of β-hydroxysteroid dehydrogenase (Sigma) solution (10 U/ml) and 0.1 ml of a solution of the present Enzyme are sequentially added thereto and the reaction is effected at 30° C., and the increase of the absorbance at 340 nm in the initial stage of the reaction is determined. Under these conditions, the enzyme activity producing 1 μmol of NADH per minute is defined as 1 unit.

[2] = system: bile acid sulfate sulfatase; experiment: Activity of the present Enzyme on substrates (coupled β-hydroxysteroid dehydrogenase/NADH assay, absorbance at 340 nm); format: biochemical, Pseudomonas testosteroni; conditions: for Relative activity (substrate specificity): lithocholic acid 3α-sulfate = 100
Experimental: as §1
(b) Substrate specificity: Acting on 3α-sulfates of nonconjugated bile acids, and 3α-sulfates each of glycine-conjugated and taurine-conjugated bile acids.

[3] = additive 2 mM, no additive = 100
[4] = additive 1 mM, no additive = 100
[5] = effect of the substance on the present Enzyme

Compound | Relative Activity [1, 3] | Relative activity (substrate specificity) [2] | also measured
O=S(=O)([O-])[O-].[Zn+2] [Zinc sulfate] | 95% |  | 
C[C@H](CCC(=O)O)[C@H]1CC[C@H]2[C@@H]3CC[C@@H]4C[C@H](OS(=O)(=O)O)CC[C@]4(C)[C@H]3CC[C@]12C [Lithocholic acid 3α-sulfate] |  | 100% | Km ([2]; Km of the present Enzyme to the substrate): 6 µM
O=S(=O)([O-])[O-].[Mg+2] [Magnesium sulfate] | 101% |  | 
O=S(=O)([O-])[O-].[Cu+2] [Copper sulfate] | 94% |  | 
[F-].[Na+] [Sodium fluoride] | 98% |  | 
c1cnc2c(c1)ccc1cccnc12 [o-Phenanthroline] |  |  | Relative Activity [1, 4]: 37%; Inhibition and activation (in words) [1, 5]: inhibited
[Cl][Cd][Cl] [Cadmium chloride] | 98% |  | 
O=C(O)c1cc[c]([Hg][Cl])cc1 [p-Chloromercuribenzoate] |  |  | Relative Activity ([1]; additive 0.2 mM, no additive = 100): 98%; Inhibition and activation (in words) [1, 5]: Hardly inhibited
C[C@H](CCC(=O)O)[C@H]1CC[C@H]2[C@@H]3CC=C4C[C@@H](OS(=O)(=O)O)CC[C@]4(C)[C@H]3CC[C@]12C [3β-Hydroxy-5-cholenic acid 3-sulfate] |  | 0% | 
[N-]=[N+]=[N-] [Sodium azide] |  |  | Relative Activity ([1]; additive 10 mM, no additive = 100): 100%
[Cl][Mn][Cl] [Manganese chloride] | 111% |  | Inhibition and activation (in words) [1, 5]: Activated
4-Nitrocatechol sulfate |  | 0% | 
O=C(O)CI [Monoiodoacetic acid] |  |  | Inhibition and activation (in words) [1]: Hardly inhibited; Relative Activity ([1]; 2000 µM): 98%
O=C(O)CN(CCN(CC(=O)O)CC(=O)O)CC(=O)O [EDTA] |  |  | Relative Activity [1, 4]: 38%; Relative Activity ([1]; additive 5 mM, no additive = 100): 25%; Inhibition and activation (in words) [1, 5]: inhibited
[Cl][Co][Cl] [Cobalt chloride] | 92% |  | 
c1ccc(-c2ccccn2)nc1 [α,α'-Dipyridyl] |  |  | Relative Activity [1, 4]: 97%
C[C@H](CCC(=O)NCCS(=O)(=O)O)[C@H]1CC[C@H]2[C@@H]3CC[C@@H]4C[C@H](OS(=O)(=O)O)CC[C@]4(C)[C@H]3CC[C@]12C [Taurolithocholic acid 3α-sulfate] |  | 2% | 
C[C@H](CCC(=O)O)[C@H]1CC[C@H]2[C@@H]3[C@H](O)C[C@@H]4C[C@H](OS(=O)(=O)O)CC[C@]4(C)[C@H]3C[C@H](O)[C@]12C [Cholic acid 3α-sulfate] |  | 238% | 
C[C@H](CCC(=O)NCC(=O)O)[C@H]1CC[C@H]2[C@@H]3CC[C@@H]4C[C@H](OS(=O)(=O)O)CC[C@]4(C)[C@H]3CC[C@]12C [Glycolithocholic acid 3α-sulfate] |  | 11% | 
[Cl][Hg][Cl] [Mercuric chloride] | 71% |  | Relative Activity [1, 4]: 90%
